What was measured:
Format in all cases: biochemical
[1] = tested on: normal human plasma; experiment: prothrombin time (PT) of normal human plasma; conditions: in vitro
Experimental: To further evaluate the selectivity as well as the potential toxicity of inhibitors, we studied their effects on the clotting times of normal human plasma as well as their effects on the proliferation of three cell lines. On the one hand, the inhibitors’ effects on activated partial thromboplastin time (APTT) and prothrombin time (PT) were measured, as described earlier under in vitro conditions,[52]−[55] using variable concentrations (0–2000 μM) (Table 3). […] On the other hand, the antiproliferative properties of inhibitors 13 and 16 were evaluated in three cell lines of breast (MCF-7), intestine (CaCo-2), and kidney (HEK-293) (Figure 5B), as described earlier.[56] […] Overall, inhibitor 16 can be considered for further development as a potent, selective, and nontoxic inhibitor of human FXIIIa.
Clotting times, including activated partial thromboplastin time (APTT) and prothrombin time (PT), were assessed in normal human plasma utilizing the BBL Fibrosystem fibrometer from Becton–Dickinson, as detailed in previous publications.[51]−[54] For the PT assay, thromboplastin-D was dissolved in 4 mL of highly purified water and then warmed to 37 °C. Subsequently, 10 μL of the inhibitor was added to 90 μL of normal human plasma and incubated for 30 s. Following this, 200 μL of prewarmed PT reagent was added, and the clotting time was recorded. In the APTT assay, 10 μL of the inhibitor was combined with 90 μL of normal human plasma and 100 μL of prewarmed APTT reagent (0.2% ellagic acid). After incubation for 4 min at 37 °C, clotting was initiated by adding 100 μL of prewarmed 0.025 M CaCl2, and the clotting time was documented. Multiple concentrations of each molecule were employed in both assays to establish a concentration vs effect curve.

[2] = molecular target: T1, papain (Carica papaya, UniProt P00784); experiment: papain chromogenic substrate assay
T1 construct: purchased Sigma Aldrich
T1 sequence (P00784 134-345): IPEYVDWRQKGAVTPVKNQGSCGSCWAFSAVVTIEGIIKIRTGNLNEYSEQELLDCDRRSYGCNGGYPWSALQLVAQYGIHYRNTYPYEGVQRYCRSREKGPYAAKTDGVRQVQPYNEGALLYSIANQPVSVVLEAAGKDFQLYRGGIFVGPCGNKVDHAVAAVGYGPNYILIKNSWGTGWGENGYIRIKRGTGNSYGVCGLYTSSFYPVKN
Text: FXIIIa and TG-2 belong to the same transglutaminase superfamily, and they share similar protein folds with a sequence similarity of 34%. Although we believe that sulfonated heparin mimetics are less likely to distribute to peripheral tissues, we evaluated inhibitor 16′s potential to inhibit TG-2 (we used recombinant TG-2). […] Likewise, we studied the inhibition of papain, a related cysteine protease, by molecule 16.
Direct inhibition of papain, a cysteine protease, by inhibitor 16 was also evaluated using a chromogenic substrate assay on a microplate reader as reported earlier.[36] Briefly, to each well of a 96-well microplate containing 91 μL of 50 mM Tris-HCl buffer, pH 7.4, containing 100 mM NaCl, 2.5 mM CaCl2, 100 mM DTT, 0.1% PEG8000, and 0.02% Tween80 was added 5 μL of inhibitor 16 (0–20 mM) or vehicle, and 3 μL of papain (130 U/mL) at 37 °C. After 5 min incubation, 1 μL of N-α-benzoyl-L-arginine 4-nitroanilide hydrochloride, the chromogenic substrate (17.7 mM) was rapidly added, and the residual enzyme activity was measured from the initial rate of increase in absorbance at 405 nm. Relative residual enzyme activity as a function of the inhibitor concentration was measured and inhibition parameters were calculated using logistic eq 1.

[3] = molecular target: T2, FXIIIa (Homo sapiens, UniProt P00488); experiment: FXIIIa-mediated fibrin(ogen) polymerization by SDS-PAGE; conditions: for effect on FXIIIa-mediated fibrin(ogen) polymerization / γ–γ dimer formation: 5–3000 μM (13), 5–2000 μM (16)
T2 construct: purchased Haematologic Technologies; host or cells: human plasma
T2 sequence (P00488 39-732 limits assumed): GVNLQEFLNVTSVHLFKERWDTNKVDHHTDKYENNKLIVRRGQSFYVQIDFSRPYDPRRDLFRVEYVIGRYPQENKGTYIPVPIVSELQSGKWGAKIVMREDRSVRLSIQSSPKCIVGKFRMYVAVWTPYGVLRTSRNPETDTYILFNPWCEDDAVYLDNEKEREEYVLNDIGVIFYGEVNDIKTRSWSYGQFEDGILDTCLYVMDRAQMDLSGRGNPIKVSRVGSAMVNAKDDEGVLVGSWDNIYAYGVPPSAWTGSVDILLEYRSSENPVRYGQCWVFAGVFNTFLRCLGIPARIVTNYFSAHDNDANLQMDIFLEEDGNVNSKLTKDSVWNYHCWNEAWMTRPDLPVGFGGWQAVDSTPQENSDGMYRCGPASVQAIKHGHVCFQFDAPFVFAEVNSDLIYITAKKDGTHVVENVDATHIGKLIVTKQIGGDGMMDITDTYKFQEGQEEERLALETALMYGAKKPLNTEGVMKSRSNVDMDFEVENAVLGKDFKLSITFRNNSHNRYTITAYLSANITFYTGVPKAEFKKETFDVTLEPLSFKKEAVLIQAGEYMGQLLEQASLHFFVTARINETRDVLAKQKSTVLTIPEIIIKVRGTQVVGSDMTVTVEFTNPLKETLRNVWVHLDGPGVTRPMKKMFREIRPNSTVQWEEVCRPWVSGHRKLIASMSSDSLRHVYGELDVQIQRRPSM
Experimental: The effect of inhibitors 13 and 16 on FXIIIa-mediated fibrin(ogen) polymerization was investigated by sodium dodecyl sulfate-polyacrylamide gel electrophoresis (SDS-PAGE), as reported earlier.[36],[49] A solution containing 13 mg/mL fibrinogen and 2.0 μg/mL FXIIIa in Tris-HCl buffer of pH 7.4 containing 10 mM CaCl2 was either incubated with different concentrations of inhibitors 13 (5, 50, 500, 1000, 2000, and 3000 μM) or 16 (5, 50, 500, 1000, 1500, and 2000 μM) or buffer. The resulting mixture was then clotted in the presence of human α-thrombin (2.5 μg/mL). The clots were incubated for 24 h at room temperature before the addition of denaturing buffer and then incubated overnight at 25 °C. Samples were boiled in a water bath for 10 min before centrifugation at 12 000g at 20 °C for 3 min; the supernatants were examined by SDS-PAGE on homogeneous 10% cross-linked gels and stained with Coomassie Brilliant Blue. The first lane contains the protein markers, whereas the second lane contains the cross-linked fibrin(ogen) formed in the presence of human α-thrombin (Figure 7). […] In both cases, the inhibition appears to achieve 100% efficacy similar to the inhibition assay results.
The impact of inhibitors 13 and 16 on FXIIIa-mediated fibrin polymerization was further explored via gel electrophoresis, as previously described.[36],[49] […] The resulting clots were incubated for 24 h at room temperature before the addition of denaturing buffer containing 25 mM NaH2PO4, 1.9% (w/v) SDS, 5.7 M urea, and 1.9% (w/v) DTT, followed by overnight incubation at room temperature. Subsequently, the samples were boiled in a water bath for 10 min, followed by centrifugation at 12,000g at 20 °C for 3 min; the supernatants were then analyzed by SDS-PAGE on homogeneous 10% cross-linked gels and stained with Coomassie Brilliant Blue.

SMILES	PT2X (concentration required to double PT) [1] [µM]	selectivity for FXIIIa over papain [2] [fold]	papain inhibition at the highest concentration tested ([2]; 500 μM)	efficacy of inhibition of fibrin(ogen) polymerization [3] [%]	effect on FXIIIa-mediated fibrin(ogen) polymerization / γ–γ dimer formation [3]
COc1cc(-c2ccc(/N=N/c3ccc4c(S(=O)(=O)O)cc(S(=O)(=O)O)c(N)c4c3O)c(OC)c2)ccc1/N=N/c1ccc2c(S(=O)(=O)O)cc(S(=O)(=O)O)c(N)c2c1O [compound 19]	3073.2 ± 281	–	–	–	–
Nc1c(/N=N/c2ccc(S(=O)(=O)CCOS(=O)(=O)O)cc2)c(S(=O)(=O)O)cc2cc(S(=O)(=O)O)c(/N=N/c3ccc(S(=O)(=O)CCOS(=O)(=O)O)cc3)c(O)c12 [compound 16]	–	> 200	did not inhibit	~100	concentration-dependently inhibited
Cc1cc(-c2ccc(/N=N/c3ccc4c(S(=O)(=O)O)cc(S(=O)(=O)O)c(N)c4c3O)c(C)c2)ccc1/N=N/c1ccc2c(S(=O)(=O)O)cc(S(=O)(=O)O)c(N)c2c1O [compound 18]	497.9 ± 52	–	–	–	–
Nc1c(S(=O)(=O)O)cc(Nc2ccc(Nc3nc(Cl)nc(Nc4ccccc4S(=O)(=O)O)n3)c(S(=O)(=O)O)c2)c2c1C(=O)c1ccccc1C2=O [compound 13]	–	–	–	~100	concentration-dependently inhibited
